This note sets out measurements from ChEMBL document CHEMBL5523718, “Design, synthesis, molecular modeling, in vitro and in vivo biological evaluation of potent anthranilamide derivatives as dual P-glycoprotein and CYP3A4 inhibitors” (Eur J Med Chem, 2024).

Each structure is given as a SMILES string. pEC50, pIC50: −log10 of the molar value. Several values for one entry are separate records, joined by “and”; a condition that tells them apart may be missing. Equal values may be shown once.

One may read the pIC50 as the IC50 on a negative log10 scale, so that one unit is a factor of ten. Usually pEC50 stands for −log10 of the EC50, conventionally taken in molar units. Low values mean a large EC50, high ones a small EC50. Broadly, the Papp B→A is the apparent permeability from the basolateral to the apical side of a cell layer. One may read the Papp A→B as the apparent permeability from the apical to the basolateral side of a cell layer.

For data set [1], the target named is T1, Cytochrome P450 3A4 (Homo sapiens, UniProt P08684). Put plainly: Inhibition of CYP3A4 in human liver using luciferin-IPA as substrate microsome preincubated with compound for 10 mins followed by NADPH addition and measured after 5 mins. Format: ADME, microsomes.
Data set [2] addresses ATP-dependent translocase ABCB1 (Homo sapiens, UniProt P08183). Put plainly: Inhibition of P-gp in human MES-SA/Dx5 cells. Format: cell-based.
The next data set concerns MES-SA/Dx5. Put plainly: Cytotoxicity against human MES-SA/Dx5 cells at 1.28 uM incubated for 3 days by MTT assay relative to control. Type of data set: functional. The conditions noted are these: time 3 day. A general note: Formazan colour is commonly taken as a measure of viable cells.
In data set [3] the target is T1, Cytochrome P450 3A4. Put plainly: Inhibition of CYP3A4 in human Hepatocyte using Luciferin-IPA as substrate. Format: ADME, cell-based.
Data set [4] in a line: Apparent permeability of compound across basolateral to apical side in human Caco-2 cells. Format: ADME, cell-based. A general note: Caco-2 cells form a polarised layer with tight junctions and transporters.
The nature of data set [5]: Apparent permeability of compound across apical to basolateral side in human Caco-2 cells. Type of data set: ADME, cell-based.
A short description of data set [6]: Equilibrium solubility of compound in PBS at pH 7.4. Format: physicochemical. The following applies: buffer.
A short description of data set [7]: Apparent permeability across apical to basolateral side in human Caco-2 cells assessed as drug recovery. Type of data set: ADME, cell-based. The conditions noted are these: read-out: Drug recovery.
A short description of data set [8]: Apparent permeability across basolateral to apical side in human Caco-2 cells assessed as drug recovery. Type of data set: ADME, cell-based. The following applies: read-out: Drug recovery.

T1 sequence (P08684 whole entry): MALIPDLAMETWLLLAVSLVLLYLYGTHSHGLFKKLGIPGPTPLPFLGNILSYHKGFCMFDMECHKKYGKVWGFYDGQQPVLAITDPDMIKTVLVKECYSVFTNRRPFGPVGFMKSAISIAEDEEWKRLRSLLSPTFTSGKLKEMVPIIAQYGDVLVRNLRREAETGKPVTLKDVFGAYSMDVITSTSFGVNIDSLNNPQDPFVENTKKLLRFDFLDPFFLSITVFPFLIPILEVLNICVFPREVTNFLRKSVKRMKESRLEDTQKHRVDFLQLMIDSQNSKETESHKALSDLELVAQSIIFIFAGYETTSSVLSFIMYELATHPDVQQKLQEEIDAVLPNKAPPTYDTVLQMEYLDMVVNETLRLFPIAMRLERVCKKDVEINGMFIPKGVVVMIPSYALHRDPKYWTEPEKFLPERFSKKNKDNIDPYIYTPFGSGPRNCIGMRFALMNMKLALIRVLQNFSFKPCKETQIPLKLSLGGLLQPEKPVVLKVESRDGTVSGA
Chain of ATP-dependent translocase ABCB1 (P08183 whole entry): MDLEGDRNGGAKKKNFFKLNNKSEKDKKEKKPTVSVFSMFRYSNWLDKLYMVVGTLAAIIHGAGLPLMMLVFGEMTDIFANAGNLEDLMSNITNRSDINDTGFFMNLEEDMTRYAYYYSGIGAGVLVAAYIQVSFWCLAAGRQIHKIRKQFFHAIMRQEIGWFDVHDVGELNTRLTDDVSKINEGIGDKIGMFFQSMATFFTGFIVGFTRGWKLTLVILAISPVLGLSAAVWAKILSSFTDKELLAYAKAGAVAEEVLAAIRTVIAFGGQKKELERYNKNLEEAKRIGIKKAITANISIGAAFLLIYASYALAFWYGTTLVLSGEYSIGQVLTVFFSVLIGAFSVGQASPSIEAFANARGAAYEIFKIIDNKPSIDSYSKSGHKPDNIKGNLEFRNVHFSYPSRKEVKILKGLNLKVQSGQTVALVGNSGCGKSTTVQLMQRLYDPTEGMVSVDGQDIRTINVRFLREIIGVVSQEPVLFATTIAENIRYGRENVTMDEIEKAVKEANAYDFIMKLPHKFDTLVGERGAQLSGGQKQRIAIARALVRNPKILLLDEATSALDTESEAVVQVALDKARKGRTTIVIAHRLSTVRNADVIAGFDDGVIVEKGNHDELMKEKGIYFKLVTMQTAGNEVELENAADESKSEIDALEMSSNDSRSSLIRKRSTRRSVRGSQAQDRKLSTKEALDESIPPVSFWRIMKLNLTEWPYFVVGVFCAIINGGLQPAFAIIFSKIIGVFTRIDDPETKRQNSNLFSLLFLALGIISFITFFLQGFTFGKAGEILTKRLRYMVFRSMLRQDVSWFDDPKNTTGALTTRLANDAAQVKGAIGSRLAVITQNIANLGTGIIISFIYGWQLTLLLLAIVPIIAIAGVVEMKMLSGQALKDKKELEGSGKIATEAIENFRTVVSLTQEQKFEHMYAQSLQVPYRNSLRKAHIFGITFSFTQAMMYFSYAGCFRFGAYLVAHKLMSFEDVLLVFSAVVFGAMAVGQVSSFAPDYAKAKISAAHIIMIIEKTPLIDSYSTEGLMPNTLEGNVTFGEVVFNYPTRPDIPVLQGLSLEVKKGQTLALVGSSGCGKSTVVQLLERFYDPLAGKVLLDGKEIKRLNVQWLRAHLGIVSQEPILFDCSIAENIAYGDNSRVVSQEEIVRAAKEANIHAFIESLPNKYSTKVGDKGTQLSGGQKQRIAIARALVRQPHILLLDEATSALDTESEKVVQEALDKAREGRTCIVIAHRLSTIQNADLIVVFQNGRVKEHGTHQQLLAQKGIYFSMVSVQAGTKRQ

`COc1cc(NC(=O)c2cc(=O)c3ccccc3o2)c(C(=O)Nc2ccc(C3CCN(Cc4cccc(-c5cccnc5)c4)CC3)cc2)cc1OC`: the pIC50 is 6.64 and 6.59 at Cytochrome P450 3A4 [1]; 5.93 and 6.31 at Cytochrome P450 3A4 [3]. In addition, the pEC50 in [2] is 7.19 and 6.63. In the data set on MES-SA/Dx5, this molecule had an Activity of 0%.
For the molecule `COc1cc(NC(=O)c2cc(=O)c3ccccc3o2)c(C(=O)Nc2ccc(N3CCN(Cc4cccc(-n5ccnc5)c4)CC3)cc2)cc1OC`, the negative-log IC50 (pIC50) at Cytochrome P450 3A4 [1] was 6.79; against Cytochrome P450 3A4 [3], 5.62. The same molecule gave a negative logarithm of the EC50 (pEC50) in data set [2] of 7.41. Besides, in the data set with MES-SA/Dx5, the Activity was 0%.
The corresponding values for `COc1cc(NC(=O)c2cnc3ccccc3c2)c(C(=O)Nc2ccc(N3CCN(Cc4ccc5c(cnn5C)c4)CC3)cc2)cc1OC` are 5.73, 5.21, 7.72 and 6%.
The corresponding values for `COc1cc(NC(=O)c2cc(=O)c3ccccc3o2)c(C(=O)Nc2ccc(C3CCN(Cc4cccc(-n5cncn5)c4)CC3)cc2)cc1OC` are 6.53, 5.87, 6.66 and 0%.
In the case of `COc1ccc(CN2CCN(c3ccc(NC(=O)c4cc(OC)c(OC)cc4NC(=O)c4cc(=O)c5ccccc5o4)cc3)CC2)cc1OC`, the pIC50 on Cytochrome P450 3A4 [1] is under 5.05. The molecule further had a pEC50 in data set [2] of 7.68. Moreover, the Activity in the data set with MES-SA/Dx5 came out at 5%.
Consider `COc1cc(NC(=O)c2cnc3ccccc3c2)c(C(=O)Nc2ccc(C3CCN(Cc4cccc(-c5ccncc5)c4)CC3)cc2)cc1OC`, for which the pIC50 was 5.95 at Cytochrome P450 3A4 [1] and 5.49 against Cytochrome P450 3A4 [3]. Moreover, in data set [2], the pEC50 is 6.73. The same molecule displayed an Activity with MES-SA/Dx5 of 3%.
The corresponding values for `COc1cc(NC(=O)c2cnc3ccccc3c2)c(C(=O)Nc2ccc(N3CCN(Cc4cccc(-n5cncn5)c4)CC3)cc2)cc1OC` are 6.61, 6.26, 6.45 and 1%.
In the case of `COc1ccc(CN2CCN(c3ccc(NC(=O)c4cc(OC)c(OC)cc4NC(=O)c4cnc5ccccc5c4)cc3)CC2)cc1OC`, at Cytochrome P450 3A4 [1], the negative logarithm of the IC50 (pIC50) was under 5.05. In [2], the negative-log EC50 (pEC50) is 7.54. Further, in the data set on MES-SA/Dx5, the Activity came to 1%.
With `COc1cc(NC(=O)c2cc(=O)c3ccccc3o2)c(C(=O)Nc2ccc(C3CCN(Cc4ccc5c(c4)OCO5)CC3)cc2)cc1OC`, the figures for the negative-log IC50 (pIC50) at Cytochrome P450 3A4 [1] and at Cytochrome P450 3A4 [3] were 5.90 and 5.19, respectively. In [2], this molecule showed a pEC50 of 7.29. In the data set with MES-SA/Dx5, this molecule yielded an Activity of 1%.
`COc1cc(NC(=O)c2cc(=O)c3ccccc3o2)c(C(=O)Nc2ccc(N3CCN(Cc4cccc(-c5cccnc5)c4)CC3)cc2)cc1OC`: the results for the pIC50 at Cytochrome P450 3A4 [1] and against Cytochrome P450 3A4 [3] were 6.47 and 6.22, respectively. The Papp B→A in data set [4] was under 0.08 ×10⁻⁶ cm/s. Besides, the apical-to-basolateral permeability (Papp A→B) in data set [5] was determined as 0.06 ×10⁻⁶ cm/s. For the same molecule, the solubility entry in [6] was “Not Determined(Insoluble)”. For the same molecule, the negative logarithm of the EC50 (pEC50) in data set [2] is 7.37. This molecule yielded an Activity in the data set with MES-SA/Dx5 of 0%. Besides, the results for the recovery in data set [7] and in [8] were 62% and 86%, respectively.
Turning to `COc1cc(NC(=O)c2cnc3ccccc3c2)c(C(=O)Nc2ccc(N3CCN(Cc4cccc(-c5ccncc5)c4)CC3)cc2)cc1OC`, the pIC50 was 6.27 at Cytochrome P450 3A4 [1] and 5.75 at Cytochrome P450 3A4 [3]. The same molecule had a pEC50 in data set [2] of 7.01. In the data set on MES-SA/Dx5, this molecule had an Activity of 2%.
For `COc1cc(NC(=O)c2cnc3ccccc3c2)c(C(=O)Nc2ccc(C3CCN(Cc4ccc5c(cnn5C)c4)CC3)cc2)cc1OC`, the pIC50 was 5.42 on Cytochrome P450 3A4 [1] and 5.05 on Cytochrome P450 3A4 [3]. Moreover, the pEC50 in [2] is 7.59. In addition, the Activity in the data set with MES-SA/Dx5 is on record as 3%.
In the case of `COc1cc(NC(=O)c2cc(=O)c3ccccc3o2)c(C(=O)Nc2ccc(N3CCN(Cc4ccc5c(cnn5C)c4)CC3)cc2)cc1OC`, the pIC50 at Cytochrome P450 3A4 [1] was 5.98; against Cytochrome P450 3A4 [3], 5.09. The molecule further gave a pEC50 in [2] of 7.85. In addition, in the data set with MES-SA/Dx5, the Activity is 2%.
The corresponding values for `COc1cc(NC(=O)c2cc(=O)c3ccccc3o2)c(C(=O)Nc2ccc(N3CCN(Cc4cccc(-c5ccncc5)c4)CC3)cc2)cc1OC` are 6.35, 5.79, 6.92 and 0%.
In the case of `COc1ccc(CN2CCC(c3ccc(NC(=O)c4cc(OC)c(OC)cc4NC(=O)c4cnc5ccccc5c4)cc3)CC2)cc1OC`, on Cytochrome P450 3A4 [1], the pIC50 is under 5.05. In data set [2], this molecule gave a negative logarithm of the EC50 (pEC50) of 7.37. This molecule showed an Activity in the data set with MES-SA/Dx5 of 3%.
Turning to `O=C(Nc1ccccc1C(=O)Nc1ccc(N2CCN(Cc3cccc(-c4cccnc4)c3)CC2)cc1)c1cc(=O)c2ccccc2o1`, the pIC50 at Cytochrome P450 3A4 [1] was 6.40; at Cytochrome P450 3A4 [3], 5.73. In data set [2], the pEC50 is 6.29. This molecule also returned an Activity in the data set on MES-SA/Dx5 of 2%.
The corresponding values for `COc1cc(NC(=O)c2cc(=O)c3ccccc3o2)c(C(=O)Nc2ccc(N3CCN(Cc4cccc(-n5cncn5)c4)CC3)cc2)cc1OC` are 6.43, 6.32, 6.48 and 1%.
In turn, `CC(=O)N1CCN(c2ccc(OCC3COC(Cn4ccnc4)(c4ccc(Cl)cc4Cl)O3)cc2)CC1` (stereo unspecified) [KETOCONAZOLE] registered an Activity in the data set with MES-SA/Dx5 of 39%.
In the case of `COc1ccc(CN2CCN(c3ccc(NC(=O)c4ccccc4NC(=O)c4cc(=O)c5ccccc5o4)cc3)CC2)cc1OC`, the negative logarithm of the IC50 (pIC50) at Cytochrome P450 3A4 [1] was under 5.05. In addition, in data set [2], the pEC50 was 6.37. In the data set on MES-SA/Dx5, this molecule displayed an Activity of 0%.
With `COc1cc(NC(=O)c2cnc3ccccc3c2)c(C(=O)Nc2ccc(C3CCN(Cc4cccc(-c5cccnc5)c4)CC3)cc2)cc1OC`, the negative logarithm of the IC50 (pIC50) was 6.61 on Cytochrome P450 3A4 [1] and 6.01 at Cytochrome P450 3A4 [3]. This molecule gave a negative-log EC50 (pEC50) in [2] of 6.97. The molecule also had an Activity with MES-SA/Dx5 of 0%.
The corresponding values for `COc1cc(NC(=O)c2cc(=O)c3ccccc3o2)c(C(=O)Nc2ccc(N3CCN(Cc4ccc5c(c4)OCO5)CC3)cc2)cc1OC` are 5.79, 5.33, 7.51 and 4%.
As to `COc1cc(NC(=O)c2cnc3ccccc3c2)c(C(=O)Nc2ccc(C3CCN(Cc4cccc(-n5cncn5)c4)CC3)cc2)cc1OC`, the figures for the pIC50 at Cytochrome P450 3A4 [1] and against Cytochrome P450 3A4 [3] were 6.18 and 5.76, respectively. Also, in data set [2], the pEC50 was 6.81. In addition, the Activity in the data set on MES-SA/Dx5 came to 1%.
The corresponding values for `COc1cc(NC(=O)c2cnc3ccccc3c2)c(C(=O)Nc2ccc(C3CCN(Cc4ccc5c(c4)OCO5)CC3)cc2)cc1OC` are 5.49, 5.05, 7.41 and 1%.
The corresponding values for `COc1cc(NC(=O)c2cc(=O)c3ccccc3o2)c(C(=O)Nc2ccc(C3CCN(Cc4ccc5c(cnn5C)c4)CC3)cc2)cc1OC` are 5.93, 5.22, 7.52 and 1%.
On to `COc1cc(NC(=O)c2cc(=O)c3ccccc3o2)c(C(=O)Nc2ccc(C3CCN(Cc4cccc(-c5ccncc5)c4)CC3)cc2)cc1OC`, for which the negative logarithm of the IC50 (pIC50) was 6.82 and 6.67 on Cytochrome P450 3A4 [1]; 5.90 and 5.94 against Cytochrome P450 3A4 [3]. The pEC50 in [2] is 6.78 and 6.67. For the same molecule, the Activity in the data set with MES-SA/Dx5 turned out to be 1%.
For the molecule `COc1ccc(CN2CCC(c3ccc(NC(=O)c4cc(OC)c(OC)cc4NC(=O)c4cc(=O)c5ccccc5o4)cc3)CC2)cc1OC`, on Cytochrome P450 3A4 [1], the pIC50 is under 5.05. In addition, in data set [2], the pEC50 is 7.40. The Activity in the data set on MES-SA/Dx5 amounted to 0%.
